In ChEMBL document CHEMBL4765380, “Synthesis, structure and anticancer activity of new geldanamycin amine analogs containing C(17)- or C(20)- flexible and rigid arms as well as closed or open ansa-bridges” (Eur J Med Chem, 2020):
pIC50, pKd: −log10 of the molar value.

How the values were obtained:
[1] = Binding affinity to HSP90 (unknown origin) assessed as dissociation constant by isothermal titration calorimetry; set-up: species or system Homo sapiens
[2] = Selectivity index, ratio of IC50 for cytotoxicity against human HDF cells to IC50 for cytotoxicity against human SK-OV-3 cells
SK-BR-3 = experiment: Antiproliferative activity against human SK-BR-3 cells assessed as reduction in cell growth incubated for 72 hrs by SRB assay; type: functional, cell-based; settings: SK-BR-3, 72 h
[3] = Selectivity index, ratio of IC50 for cytotoxicity against human HDF cells to IC50 for cytotoxicity against human A549 cells; type: toxicity, cell-based; settings: HDF cells versus A549 cells, read-out: Ratio IC50
A549 = experiment: Antiproliferative activity against human A549 cells assessed as reduction in cell growth incubated for 72 hrs by SRB assay; type: functional, cell-based; settings: A549, 72 h
[4] = Selectivity index, ratio of IC50 for cytotoxicity against human HDF cells to IC50 for cytotoxicity against human PC-3 cells; type: toxicity, cell-based; settings: HDF cells versus PC-3 cells, read-out: Ratio IC50
[5] = Selectivity index, ratio of IC50 for cytotoxicity against human HDF cells to IC50 for cytotoxicity against human SK-BR-3 cells; type: toxicity, cell-based; settings: HDF cells versus SK-BR-3 cells, read-out: Ratio IC50
PC-3 = experiment: Antiproliferative activity against human PC-3 cells assessed as reduction in cell growth incubated for 72 hrs by SRB assay; type: functional, cell-based; settings: PC-3, 72 h
U-87 MG = experiment: Antiproliferative activity against human U-87 MG cells assessed as reduction in cell growth incubated for 72 hrs by SRB assay; type: functional, cell-based, U-87MG ATCC
SK-OV-3 = experiment: Antiproliferative activity against human SK-OV-3 cells assessed as reduction in cell growth incubated for 72 hrs by SRB assay; type: functional, cell-based; settings: SK-OV-3, 72 h
[6] = Selectivity index, ratio of IC50 for cytotoxicity against human HDF cells to IC50 for cytotoxicity against human U-87 MG cells; type: toxicity, cell-based; settings: HDF cells versus U-87 MG cells, read-out: Ratio IC50
[7] = Cytotoxicity against human HDF cells assessed as reduction in cell growth incubated for 72 hrs by SRB assay; type: cell-based; settings: HDFa
[8] = Octanol/water partition coefficient, logP of compound incubated for 1 hr by UV-visible spectrophotometry; type: physicochemical
[9] = Binding affinity to yeast HSP90 assessed as dissociation constant by isothermal titration calorimetry; set-up: species or system Saccharomyces cerevisiae
[10] = Binding affinity to HSP90 (unknown origin); set-up: species or system Homo sapiens

| pKd [1] | pIC50 (SK-BR-3) | pIC50 (A549) | pIC50 (PC-3) | pIC50 (U-87 MG) | pIC50 (SK-OV-3) | logP at 1 h [8] | pKd [9] | pKd [10] | SMILES | Ratio IC50 [2] | selectivity ratio [3] | selectivity ratio [4] | selectivity ratio [5] | selectivity ratio [6] | pIC50 [7] |
| --- | --- | --- | --- | --- | --- | --- | --- | --- | --- | --- | --- | --- | --- | --- | --- |
| 5.86 | 6.03 | 6.04 | 6.09 | 6.10 | 6.13 | 2.02 |  |  | COCCOCCOCCNC1=C2C[C@@H](C)C[C@H](OC)[C@H](O)[C@@H](C)/C=C(\C)[C@H](OC(N)=O)[C@@H](OC)/C=C\C=C(/C)C(=O)NC(=CC1=O)C2=O | 3.74 | 3.04 | 3.42 | 2.98 | 3.51 | 5.56 |
| 5.53 | 5.33 | 5.36 | 5.39 | 5.31 | 5.33 |  |  |  | C#CCCN1CCC(NC2=C3C[C@@H](C)C[C@H](OC)[C@H](O)[C@@H](C)/C=C(\C)[C@H](OC(N)=O)[C@@H](OC)/C=C\C=C(/C)C(=O)NC(=CC2=O)C3=O)CC1 | 2.48 | 2.69 | 2.87 | 2.49 | 2.42 | 4.93 |
|  | 5.38 | 5.39 | 5.34 | 5.39 | 5.37 |  |  |  | CO[C@@H](/C=C/C=C(/C)C(N)=O)[C@@H](OC(N)=O)/C(C)=C/[C@H](C)[C@@H](O)[C@H](C[C@H](C)CC1=C(NCCCCO)C(=O)C=C(NCCCCO)C1=O)OC | 1.49 | 1.55 | 1.4 | 1.51 | 1.56 | 5.20 |
| 3.87 | 5.68 | 5.62 | 5.67 | 5.69 | 5.58 |  |  |  | CO[C@@H](C=CC=C(C)C(N)=O)[C@@H](OC(N)=O)/C(C)=C/[C@H](C)[C@@H](O)[C@H](C[C@H](C)CC1=C(NCCO)C(=O)C=C(NCCO)C1=O)OC | 1.82 | 2.03 | 2.72 | 2.33 | 3.42 | 5.32 |
|  | 4.92 | 4.94 | 4.89 | 4.90 | 4.91 |  |  |  | CO[C@@H](C=CC=C(C)C(N)=O)[C@@H](OC(N)=O)/C(C)=C/[C@H](C)[C@@H](O)[C@H](C[C@H](C)CC1=C(NCCOCCO)C(=O)C=C(NCCOCCO)C1=O)OC | 2.53 | 2.73 | 2.41 | 2.62 | 2.49 | 4.50 |
| 6.09 | 7.11 | 7.11 | 6.72 | 7.08 | 7.08 | 3.11 |  |  | CO[C@H]1/C=C\C=C(/C)C(=O)NC2=CC(=O)C(NC3CCN(C(=O)OC(C)(C)C)CC3)=C(C[C@@H](C)C[C@H](OC)[C@H](O)[C@@H](C)/C=C(\C)[C@@H]1OC(N)=O)C2=O | 30.7 | 33.1 | 13.4 | 33.1 | 30.4 | 5.59 |
| 5.92 | 6.15 | 5.96 | 6.22 | 6.08 | 6.18 |  |  |  | CO[C@H]1/C=C\C=C(/C)C(=O)NC2=CC(=O)C(NCC3COCCOCCOCCOCCOCCO3)=C(C[C@@H](C)C[C@H](OC)[C@H](O)[C@@H](C)/C=C(\C)[C@@H]1OC(N)=O)C2=O (stereo partly specified) | 6.17 | 3.73 | 6.78 | 5.73 | 4.85 | 5.39 |
| 6.03 | 5.58 | 5.54 | 5.63 | 5.55 | 5.55 |  |  |  | CO[C@H]1/C=C\C=C(/C)C(=O)NC2=CC(=O)C(NCC3CCC(C(=O)O)CC3)=C(C[C@@H](C)C[C@H](OC)[C@H](O)[C@@H](C)/C=C(\C)[C@@H]1OC(N)=O)C2=O (stereo partly specified) | 2.64 | 2.53 | 3.12 | 2.82 | 2.52 | 5.13 |
|  | 5.08 | 5.09 | 5.04 | 5.07 | 5.03 |  |  |  | CO[C@@H](/C=C/C=C(/C)C(N)=O)[C@@H](OC(N)=O)/C(C)=C/[C@H](C)[C@@H](O)[C@H](C[C@H](C)CC1=C(NCCCN2CCCC2)C(=O)C=C(NCCCN2CCCC2)C1=O)OC | 2.19 | 2.54 | 2.27 | 2.49 | 2.43 | 4.69 |
| 6.05 | 5.80 | 5.95 | 5.94 | 5.96 |  | 2.39 |  |  | CCOC(=O)N1CCC(NC2=C3C[C@@H](C)C[C@H](OC)[C@H](O)[C@@H](C)/C=C(\C)[C@H](OC(N)=O)[C@@H](OC)/C=C\C=C(/C)C(=O)NC(=CC2=O)C3=O)CC1 | 3.96 | 4.77 | 4.69 | 3.41 | 4.94 | 5.27 |
| 3.74 |  | 4.96 | 4.93 | 4.94 | 4.93 |  |  |  | CO[C@@H](C=CC=C(C)C(N)=O)[C@@H](OC(N)=O)/C(C)=C/[C@H](C)[C@@H](O)[C@H](C[C@H](C)CC1=C(NCCCCCCO)C(=O)C=C(NCCCCCCO)C1=O)OC | 1.47 | 1.57 | 1.48 |  | 1.52 |  |
|  | 5.66 | 5.53 | 5.70 | 5.63 | 5.60 |  |  |  | CO[C@H]1/C=C\C=C(/C)C(=O)NC2=CC(=O)C(NC3CCN(S(C)(=O)=O)CC3)=C(C[C@@H](C)C[C@H](OC)[C@H](O)[C@@H](C)/C=C(\C)[C@@H]1OC(N)=O)C2=O | 2.58 | 2.19 | 3.19 | 2.93 | 2.76 | 5.19 |
| 6.05 | 6.23 | 6.23 | 6.24 | 6.21 | 6.26 | 2.9 |  |  | CCOC(=O)C1CCC(CNC2=C3C[C@@H](C)C[C@H](OC)[C@H](O)[C@@H](C)/C=C(\C)[C@H](OC(N)=O)[C@@H](OC)/C=C\C=C(/C)C(=O)NC(=CC2=O)C3=O)CC1 (stereo partly specified) | 3.91 | 3.64 | 3.21 | 3.64 | 3.47 | 5.67 |
|  | 6.06 | 6.08 | 6.09 | 6.07 | 6.00 |  |  |  | Nc1ccn([C@@H]2O[C@H](CO)[C@@H](O)[C@@H]2O)c(=O)n1 [CYTARABINE] | 6 | 7.16 | 7.33 | 6.83 | 6.99 | 5.23 |
|  | 6.06 | 6.00 | 6.14 | 6.09 | 6.03 |  | 5.91 | 4.98 | COC1=C2C[C@@H](C)C[C@H](OC)[C@H](O)[C@@H](C)/C=C(\C)[C@H](OC(N)=O)[C@@H](OC)/C=C\C=C(/C)C(=O)NC(=CC1=O)C2=O [GELDANAMYCIN] | 2.27 | 2.15 | 2.92 | 2.45 | 2.62 | 5.67 |
|  | 7.42 | < 5.00 | 7.21 | < 5.00 | 6.66 |  |  | 5.61 | C=CCNC1=C2C[C@@H](C)C[C@H](OC)[C@H](O)[C@@H](C)/C=C(\C)[C@H](OC(N)=O)[C@@H](OC)/C=C\C=C(/C)C(=O)NC(=CC1=O)C2=O [TANESPIMYCIN] |  | 52 |  | 49 | 51 | 5.92 |
